From article PMC6843445, “Pharmacokinetic Properties of Fluorescently Labelled Hydroxypropyl-Beta-Cyclodextrin” (Biomolecules, 2019)

Experiments:
[1] = In vivo and ex vivo fluorescence imaging; parameters: species or system Male BALB/c mice; details: mice, i.v.
Description: Male BALB/c mice (22–25 g) were bred and maintained in normal watering and feeding conditions in a Laboratory Animal Husbandry Facility, equipped with IVC (individually ventilated cages), controlled atmosphere-temperature, humidity and lighting (Vasile Goldis Western University, Arad, Romania). All experimental procedures were performed in compliance with the appropriate laws and institutional guidelines, and were approved by the Institutional Ethics Committee of Vasile Goldiș Western University of Arad (Arad, Romania). FITC-HPBCD (0.5 and 2.5 mg), dissolved in 0.1 mL saline solution was injected into the femoral vein of mice under general anaesthesia. Maintaining the surgical plane of anesthesia, mice were placed into an in vivo imaging system (In-vivo Xtreme, Carestream, Carestream Health Inc. USA). At 5, 15, 30, 45 and 60 min, fluorescence and X-ray images were recorded of the animals. After 30 or 60 min, the blood vessels of some animals were perfused by warm saline solution and their organs (livers, lungs, kidneys, spleens and brains) were removed for ex vivo imaging (excitation: 480 nm, emission: 535 nm).

[2] = In vivo pharmacokinetic investigation, plasma FITC-HPBCD after i.v. administration; parameters: species or system BALB/c male mice; details: for CL: clearance = terminal ke × Vd1; for CL / ke (1–15 min) / t1/2 (1–15 min) / t1/2 (15–30 min) / t1/2 (30–60 min) / ke (15–30 min) / t1/2 (15–45 min) / t1/2 (45–60 min) / ke (15–45 min) / kc (1–15 min) / ke (30–60 min) / ke (45–60 min) / Vd: dose 250 µg; for ke (1–15 min): elimination rate constant; for ke (1–15 min) / ke (15–30 min) / ke (15–45 min) / kc (1–15 min) / ke (30–60 min) / ke (45–60 min): in min-1 (unit assumed); for t1/2 (1–15 min) / t1/2 (15–30 min) / t1/2 (30–60 min) / t1/2 (15–45 min) / t1/2 (45–60 min): in min; for Vd at 1 min of sampling: n = 6; for kc (1–15 min): rate constant of compartmentalization; for ke (30–60 min) / ke (45–60 min): terminal phase; for Vd: volume of distribution at 1 min
Description: Twelve BALB/c male mice (23–25 g) were involved in the study. 0.25 mg FITC-HPBCD, dissolved in 0.2 mL saline solution was injected into the lateral tail vein of each mouse. Blood samples were collected from the orbital sinus from six mice after 1, 15, 30 and 60 min and at 1, 15, 45 and 60 min from other six mice by the same sampling method. Blood samples were incubated for 1 h at 37 °C and centrifuged for 8 min at 1700 rpm to separate blood plasma. Aliquots of plasma from the samples were placed into black 96-well plates and their fluorescence intensities were measured by a FLUOstar Optima microplate reader (BMG LABTECH, Offenburg, Germany; 492 nm excitation and 520 nm emission wavelengths) and the plasma FITC-HPBCD concentrations were calculated.
The two compartment model was characterized by the following equations:(3) Ct=C^′×e^−kc×t+C^″×e^−ke×t (4) C0=C^′+C^″ where ke is the elimination rate constant of FITC-HPBCD determined from data of the terminal phase (ke(30-60 min) or ke(45-60 min)); t1/2 is the half-life of FITC-HPBCD calculated from the corresponding ke values; CL is the clearance of FITC-HPBCD; Vd is the volume of distribution of FITC-HPBCD determined from data related to the first minute (Vd1); Ct is the plasma concentration of FITC-HPBCD at “t”; C′ and C″ are the two components of the initial plasma concentration of FITC-HPBCD representing the amount of FITC-HPBCD that will be compartmentalized and eliminated, respectively.

HUVECs = assay: Intracellular FITC-HPBCD accumulation, fluorescence microscopy; format: cell-based, Human; details: 50 µM, 30 min, 37 °C
Description: Human umbilical vein endothelial cells (HUVECs) were removed from umbilical veins by exposure to dispase (0.2% in Hank’s balanced salt solution) and cultured in gelatin-coated flasks in medium 199 containing 15% foetal bovine serum (FBS), antibiotics, L-glutamine, sodium pyruvate and endothelial cell growth supplement from bovine pituitary. For the fluorescent microscopic experiments, cells were seeded onto gelatin-coated round glass coverslips and maintained in medium until the treatments.
HUVECs, cultured on gelatin-coated glass coverslips were washed twice with Hank’s Balanced Salt Solution (HBSS) and treated with 50 µM FITC-HPBCD for 30 min at 37 °C. Cells were washed five times with ice-cold HBSS and fixed with 3% paraformaldehyde for 15 min. After fixation cells were washed with HBSS and the nuclei were stained with Hoechst 33,342 at the final concentration of 300 nM. Cells were washed again and mounted on microscope slides. […] Images were analyzed with ZEN 2012 v.1.1.0.0. software (Carl Zeiss Microscopy GmbH, Göttingen, Germany)

[3] = Tissue accumulation in the supernatant of tissue homogenates ex vivo; parameters: species or system BALB/c male mice; details: mice, i.v., after 60 min
Description: After the last blood sample collection, six animals were anaesthetized, and their blood vessels were perfused by warm saline solution. Finally, all mice were sacrificed, and the organs were removed from the six saline-perfused mice for further analysis. The collected organs (livers, lungs, kidneys, spleens, hearts and brains) were homogenized by adding 0.8 mL saline solution and the homogenates were centrifuged at 10,000 rpm for 20 min at 4 °C. From each sample, 0.1 mL of supernatant was placed into black 96-well plates and the fluorescence intensities were measured by microplate reader as described above. The lower limit of quantification of FITC-HPBCD in mouse plasma and organ homogenates was 0.25 µg/mL. The protein content of the tissue samples was determined by PierceTM BCA protein assay (Thermo Scientific, Rockford, IL, USA) according to the manufacturer’s instruction. FITC-HPBCD content of the samples was normalized to the tissue protein content. The animals were maintained in accordance with the Guidelines for the Care and Use of Laboratory Animals; experiments were approved by the Animal Care Committee of the University of Debrecen (permission no. 12/2014).

[4] = mice, i.v., Group F, sampling 1, 15, 30 and 60 min
[5] = mice, i.v., Group F, sampling 1, 15, 45 and 60 min
[6] = mice, i.v., Group NF, sampling 1, 15, 30 and 60 min
[7] = mice, i.v., Group NF, sampling 1, 15, 45 and 60 min

ex vivo fluorescence of lungs vs untreated control, separated imaging ([1]; 0.5 mg): higher ex vivo fluorescence | ex vivo fluorescence of kidneys ([1]; 0.5 mg, after 30 min): relative higher fluorescence | ex vivo fluorescence of kidneys ([1]; 2.5 mg/animal): especially high fluorescence | ex vivo fluorescence of lung ([1]; 2.5 mg/animal): elevated intensity | ex vivo fluorescence of organs vs control ([1]; 2.5 mg/animal, every organ (livers, lungs, kidneys, spleens, brains)): higher fluorescence intensities | in vivo fluorescence of the bladder ([1]; 30 and 45 min, urinated out at 60 min): accumulated in the bladder | ex vivo fluorescence of brains vs untreated ([1]; after 60 min): no difference | CL [2, 4]: 0.11 ± 0.15 mL/min | CL [2, 5]: 0.23 ± 0.08 mL/min | CL [2, 6]: 0.25 ± 0.15 mL/min | CL [2, 7]: 0.69 ± 0.38 mL/min | ke (1–15 min) [2, 4]: 0.092 ± 0.023 | ke (1–15 min) [2, 5]: 0.095 ± 0.017 | ke (1–15 min) [2, 6]: 0.115 ± 0.017 | ke (1–15 min) [2, 7]: 0.107 ± 0.006 | Vd at the first minute, average ([2]; mice, i.v., all animals n = 12): 5.7 ± 1.34 mL | t1/2 (1–15 min) ([2]; mice, i.v., Group F (followed two-compartment model), sampling 1, 15, 30 and 60 min): 7.82 ± 1.48 | t1/2 (15–30 min) [2, 4]: 7.54 ± 0.52 | t1/2 (30–60 min) [2, 4]: 122.3 ± 109.4 | ke (15–30 min) [2, 4]: 0.092 ± 0.007 | t1/2 (1–15 min) [2, 5]: 7.5 ± 1.13 | t1/2 (15–45 min) [2, 5]: 13.55 ± 1.45 | t1/2 (45–60 min) [2, 5]: 20.06 ± 3.89 | ke (15–45 min) [2, 5]: 0.052 ± 0.007 | t1/2 (1–15 min) ([2]; mice, i.v., Group NF (did not follow model), sampling 1, 15, 30 and 60 min): 6.13 ± 0.78 | t1/2 (15–30 min) [2, 6]: 35.01 ± 10.15 | t1/2 (30–60 min) [2, 6]: 16.61 ± 7.12 | ke (15–30 min) [2, 6]: 0.022 ± 0.009 | t1/2 (1–15 min) [2, 7]: 6.50 ± 0.31 | t1/2 (15–45 min) [2, 7]: 13.36 ± 3.05 | t1/2 (45–60 min) [2, 7]: 8.99 ± 4.54 | ke (15–45 min) [2, 7]: 0.054 ± 0.013 | Vd at 1 min of sampling ([2]; mice, i.v., group following the model): 5.55 ± 0.98 mL | Vd at 1 min of sampling ([2]; mice, i.v., group not following the model): 5.85 ± 1.72 mL | i.v. administered FITC-HPBCD eliminated from mice within 60 min ([2]; mouse, in vivo, iv): 96.58 ± 2.6% | kc (1–15 min) [2, 4]: 0.109 ± 0.026 | kc (1–15 min) [2, 5]: 0.142 ± 0.033 | ke (30–60 min) [2, 4]: 0.022 ± 0.029 | ke (45–60 min) [2, 5]: 0.036 ± 0.008 | ke (30–60 min) [2, 6]: 0.049 ± 0.020 | ke (45–60 min) [2, 7]: 0.095 ± 0.044 | Vd [2, 4]: 4.86 ± 0.21 mL | Vd [2, 5]: 6.25 ± 0.77 mL | Vd [2, 6]: 4.70 ± 1.27 mL | Vd [2, 7]: 7.01 ± 0.81 mL | fluorescence intensities in the supernatant of liver, lung, spleen, heart and brain homogenates [3]: not elevated | fluorescence intensity in the supernatant of kidney homogenates ([3]; normalized to tissue protein content): significant fluorescence
Substance: 6-deoxy-6-[(5/6)-fluoresceinylthioureido]-(2-hydroxypropyl)-β-cyclodextrin [FITC-HPBCD]
in vivo whole-body fluorescence distribution ([1]; 0.5 mg and 2.5 mg/animal, images at 5-60 min): distributed over the entire body of the animals | ex vivo fluorescence of brains vs untreated ([1]; both doses (0.5 and 2.5 mg), after 30 min, separated examination): higher fluorescence than the untreated ones | cellular localization by fluorescence microscopy (HUVECs): detected in the cytoplasm of HUVECs in small green vesicles
